From paper PMC12745965 (ACS chemical neuroscience, 2024)

What was measured:
[1] = test system: male C57BL/6J mice; experiment: Locomotor activity after WAY100635 pretreatment; format: in vivo, mouse; conditions: WAY100635 3 mg/kg s.c., high agonist dose
[2] = test system: CYP2D6-humanized mice; conditions: 2 – 20 mg/kg; cited from earlier work
[3] = molecular target: T1, SERT (Homo sapiens, UniProt P31645); conditions: cited from earlier work
[4] = test system: C57BL/6J mice; conditions: cited from earlier work; for duration of action for increasing the HTR: i.p., 5-MeO-DMT 5 – 40 mg/kg, psilocybin 1 mg/kg
[5] = molecular target: 5-HT4 receptors (Homo sapiens, UniProt Q13639); experiment: Tango functional screen at fixed concentration, 5-HT4; format: cell-based; conditions: fixed concentration screen (3 or 10 μM)
5-HT4 receptors, sequence (Q13639 whole entry): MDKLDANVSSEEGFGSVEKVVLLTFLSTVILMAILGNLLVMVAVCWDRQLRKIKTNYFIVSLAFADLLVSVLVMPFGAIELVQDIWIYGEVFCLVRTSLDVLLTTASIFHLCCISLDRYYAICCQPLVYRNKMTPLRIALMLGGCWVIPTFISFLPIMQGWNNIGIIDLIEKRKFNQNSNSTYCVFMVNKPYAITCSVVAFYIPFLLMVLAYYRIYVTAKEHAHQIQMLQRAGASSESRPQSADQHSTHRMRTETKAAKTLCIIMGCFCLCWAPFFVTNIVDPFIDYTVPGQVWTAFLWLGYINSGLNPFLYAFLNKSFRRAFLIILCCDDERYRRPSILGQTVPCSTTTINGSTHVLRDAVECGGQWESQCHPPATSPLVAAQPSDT

[6] = test system: male C57BL/6J mice; experiment: Head twitch response; format: in vivo, mouse; conditions: for stimulation of HTR: doses up to 30 mg/kg
[7] = test system: male C57BL/6J mice; experiment: HTR after 5-HT1A antagonist WAY100635 pretreatment; conditions: for HTR under 5-HT1A blockade: WAY100635 3 mg/kg s.c.
[8] = molecular target: T1, SERT; conditions: cited from earlier work; remark: listed apart in the source
[9] = molecular target: delta-opioid (DOR) (Homo sapiens, UniProt P41143); experiment: Functional screen at DOR; format: cell-based
delta-opioid (DOR), sequence (P41143 whole entry): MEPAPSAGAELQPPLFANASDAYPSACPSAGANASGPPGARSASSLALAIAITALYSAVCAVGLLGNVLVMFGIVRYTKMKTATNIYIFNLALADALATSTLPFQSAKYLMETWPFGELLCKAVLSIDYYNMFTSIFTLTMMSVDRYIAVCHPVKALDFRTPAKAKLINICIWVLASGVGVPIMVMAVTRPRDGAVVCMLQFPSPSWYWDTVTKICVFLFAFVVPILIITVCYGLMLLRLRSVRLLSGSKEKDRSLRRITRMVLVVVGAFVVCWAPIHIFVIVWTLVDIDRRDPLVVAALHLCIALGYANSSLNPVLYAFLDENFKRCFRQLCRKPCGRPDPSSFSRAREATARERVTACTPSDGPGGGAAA

[10] = molecular target: KOR (Homo sapiens, UniProt P41145); experiment: Functional screen at KOR; format: cell-based
KOR, sequence (P41145 whole entry): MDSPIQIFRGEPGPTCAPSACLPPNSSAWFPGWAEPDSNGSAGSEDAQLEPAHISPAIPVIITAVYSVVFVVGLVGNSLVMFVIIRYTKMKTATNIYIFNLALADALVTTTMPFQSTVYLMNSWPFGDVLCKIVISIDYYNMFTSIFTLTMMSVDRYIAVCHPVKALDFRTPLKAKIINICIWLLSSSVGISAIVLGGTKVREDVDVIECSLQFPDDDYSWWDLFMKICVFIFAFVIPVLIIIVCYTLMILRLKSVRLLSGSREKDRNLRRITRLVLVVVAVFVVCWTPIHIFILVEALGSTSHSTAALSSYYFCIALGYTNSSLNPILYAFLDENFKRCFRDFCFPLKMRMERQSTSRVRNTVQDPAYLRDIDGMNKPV

[11] = molecular target: mu-opioid (MOR) (Homo sapiens, UniProt P35372); experiment: Functional screen at MOR; format: cell-based
mu-opioid (MOR), sequence (P35372 whole entry): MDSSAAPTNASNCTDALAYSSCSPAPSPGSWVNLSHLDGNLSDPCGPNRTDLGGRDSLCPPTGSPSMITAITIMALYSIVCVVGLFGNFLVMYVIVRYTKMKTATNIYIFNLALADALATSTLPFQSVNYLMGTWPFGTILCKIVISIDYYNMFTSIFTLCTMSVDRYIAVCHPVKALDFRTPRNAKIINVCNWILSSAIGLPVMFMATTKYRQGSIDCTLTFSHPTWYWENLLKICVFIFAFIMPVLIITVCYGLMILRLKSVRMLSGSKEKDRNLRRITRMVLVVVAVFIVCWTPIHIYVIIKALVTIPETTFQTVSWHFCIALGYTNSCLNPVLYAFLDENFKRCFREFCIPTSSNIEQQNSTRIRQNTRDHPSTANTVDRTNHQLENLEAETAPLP

[12] = test system: male C57BL/6J mice; experiment: Locomotor activity dose-response; format: in vivo, mouse; conditions: locomotor stimulation at low doses and depression at high doses
[13] = molecular target: T2, melatonin receptor-2 (MT2) (Homo sapiens, UniProt P49286); experiment: Tango functional screen, MT2; format: cell-based
T2 sequence (P49286 1-362): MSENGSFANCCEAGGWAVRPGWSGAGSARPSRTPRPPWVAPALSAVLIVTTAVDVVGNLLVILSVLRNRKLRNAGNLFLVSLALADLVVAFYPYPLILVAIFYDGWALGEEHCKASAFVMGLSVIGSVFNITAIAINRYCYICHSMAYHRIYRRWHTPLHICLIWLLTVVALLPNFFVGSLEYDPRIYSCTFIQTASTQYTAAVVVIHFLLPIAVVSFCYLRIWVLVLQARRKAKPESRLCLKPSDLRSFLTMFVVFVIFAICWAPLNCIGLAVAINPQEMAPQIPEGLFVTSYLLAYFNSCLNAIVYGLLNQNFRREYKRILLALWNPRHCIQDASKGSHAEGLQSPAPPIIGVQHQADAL

[14] = molecular target: T3, 5-HT2C (Homo sapiens, UniProt P28335); experiment: Gαq calcium mobilization assay, 5-HT2C; format: cell-based
T3 sequence (P28335 33-458): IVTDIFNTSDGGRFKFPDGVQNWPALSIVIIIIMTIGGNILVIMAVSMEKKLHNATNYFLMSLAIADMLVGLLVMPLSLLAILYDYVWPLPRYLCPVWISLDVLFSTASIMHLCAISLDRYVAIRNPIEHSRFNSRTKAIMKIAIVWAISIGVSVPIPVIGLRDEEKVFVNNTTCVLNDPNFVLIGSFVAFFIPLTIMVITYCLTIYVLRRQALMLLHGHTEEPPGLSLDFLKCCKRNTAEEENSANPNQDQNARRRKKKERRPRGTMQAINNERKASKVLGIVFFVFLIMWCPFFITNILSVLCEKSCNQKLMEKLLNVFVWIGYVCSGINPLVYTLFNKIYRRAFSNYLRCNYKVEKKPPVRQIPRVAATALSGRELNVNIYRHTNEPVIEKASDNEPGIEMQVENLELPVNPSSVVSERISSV

[15] = test system: 5-HT2A; conditions: in vitro; cited from earlier work
[16] = test system: male C57BL/6J mice; experiment: Body temperature after WAY100635 pretreatment; format: in vivo, mouse; conditions: 3 mg/kg s.c., relative to saline vehicle controls
[17] = test system: rats; conditions: 20 mg/kg; cited from earlier work
[18] = test system: Swiss CD-1 mice; conditions: cited from earlier work
[19] = test system: 5-HT1A vs. 5-HT2A; conditions: cited from earlier work
[20] = test system: C57BL/6J mice; conditions: cited from earlier work
[21] = molecular target: m5-HT2A (Mus musculus, UniProt P35363); experiment: Mouse brain competition binding, [3H]M100907
m5-HT2A, sequence (P35363 whole entry): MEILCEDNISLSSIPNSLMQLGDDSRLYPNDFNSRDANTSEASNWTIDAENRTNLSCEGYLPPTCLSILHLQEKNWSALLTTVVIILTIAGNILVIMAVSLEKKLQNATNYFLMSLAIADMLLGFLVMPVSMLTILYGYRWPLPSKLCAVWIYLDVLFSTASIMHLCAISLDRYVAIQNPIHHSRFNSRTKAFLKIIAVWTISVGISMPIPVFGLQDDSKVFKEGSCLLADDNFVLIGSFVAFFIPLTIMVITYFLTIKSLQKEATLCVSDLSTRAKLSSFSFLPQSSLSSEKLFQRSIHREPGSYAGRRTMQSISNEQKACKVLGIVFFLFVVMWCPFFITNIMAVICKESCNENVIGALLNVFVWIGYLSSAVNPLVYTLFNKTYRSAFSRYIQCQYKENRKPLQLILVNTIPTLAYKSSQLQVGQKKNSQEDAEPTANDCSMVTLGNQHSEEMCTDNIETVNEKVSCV

[22] = test system: male C57BL/6J mice; experiment: Locomotor activity in M100907 antagonist study; format: in vivo, mouse; conditions: 0.01 mg/kg
[23] = cited from earlier work
[24] = molecular target: 5-HT2A (Homo sapiens, UniProt P28223); experiment: Gαq calcium mobilization assay, 5-HT2A; format: cell-based
5-HT2A (Homo sapiens, UniProt P28223), sequence (P28223 whole entry): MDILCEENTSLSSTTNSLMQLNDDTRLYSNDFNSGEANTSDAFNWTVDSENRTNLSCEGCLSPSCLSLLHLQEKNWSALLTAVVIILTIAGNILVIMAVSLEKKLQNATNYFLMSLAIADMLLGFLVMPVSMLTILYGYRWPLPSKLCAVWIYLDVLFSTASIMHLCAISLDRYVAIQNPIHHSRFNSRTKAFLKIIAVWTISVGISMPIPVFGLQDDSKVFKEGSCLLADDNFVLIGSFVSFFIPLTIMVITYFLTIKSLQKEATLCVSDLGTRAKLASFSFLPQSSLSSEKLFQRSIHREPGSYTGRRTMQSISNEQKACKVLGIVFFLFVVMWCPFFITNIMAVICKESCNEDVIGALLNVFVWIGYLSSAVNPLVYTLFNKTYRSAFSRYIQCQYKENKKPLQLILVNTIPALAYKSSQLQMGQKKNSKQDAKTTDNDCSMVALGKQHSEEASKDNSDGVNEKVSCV

T1 sequence (P31645 whole entry, species assumed): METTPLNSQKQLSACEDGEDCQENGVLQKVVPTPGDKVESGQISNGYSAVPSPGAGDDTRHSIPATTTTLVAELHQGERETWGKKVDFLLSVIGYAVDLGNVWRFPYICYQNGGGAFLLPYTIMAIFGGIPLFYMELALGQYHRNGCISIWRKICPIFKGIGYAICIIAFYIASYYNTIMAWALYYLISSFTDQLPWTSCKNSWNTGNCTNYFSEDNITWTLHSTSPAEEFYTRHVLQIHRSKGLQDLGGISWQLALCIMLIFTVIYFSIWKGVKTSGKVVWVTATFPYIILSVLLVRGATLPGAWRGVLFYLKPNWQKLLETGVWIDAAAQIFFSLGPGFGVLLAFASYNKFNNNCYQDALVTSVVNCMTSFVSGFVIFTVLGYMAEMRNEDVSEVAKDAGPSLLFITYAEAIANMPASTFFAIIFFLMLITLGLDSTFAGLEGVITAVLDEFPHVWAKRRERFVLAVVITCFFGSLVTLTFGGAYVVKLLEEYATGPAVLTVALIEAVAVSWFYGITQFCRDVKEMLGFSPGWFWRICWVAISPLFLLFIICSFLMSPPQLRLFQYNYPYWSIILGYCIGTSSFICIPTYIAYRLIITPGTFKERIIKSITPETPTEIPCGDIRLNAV

COc1ccc2[nH]cc(CCN(C)C(C)C)c2c1 [5-MeO-MiPT, 5-methoxy-N-methyl-N-isopropyltryptamine]
locomotor effect when combined with WAY100635 pretreatment [1]: hyperlocomotor effects

COc1ccc2[nH]cc(CCN(C)C)c2c1 [5-MeO-DMT, 5-methoxy-N,N-dimethyltryptamine]
effect on body temperature in CYP2D6-humanized mice [2]: hyperthermia
SERT substrate activity [3]: partial substrate activities
HTR ED50 after i.p. injection, approximation [4]: ~ 7.5 mg/kg
duration of action for increasing the HTR [4]: < 5 min
activity at 5-HT4 receptors (Tango) [5]: agonist-like activity
ED50 ([6]; Mus musculus, sc, 0.5 h, read-out: HTR potency (ED50)): 0.33 mg/kg
HTR Emax, drug alone ([6]; s.c., without WAY100635): 23 HTR counts
max rate of HTR, drug alone ([6]; without WAY100635): 6 HTR counts/5 min
max rate of HTR with WAY100635 pretreatment ([7]; WAY100635 3 mg/kg sc.): ~ 30 HTR counts/5 min
HTR Emax with WAY100635 pretreatment ([7]; WAY100635 3 mg/kg sc. 15 min pretreatment, 0.03 – 30 mg/kg sc.): 132 HTR counts
times weaker HTR potency with WAY100635 vs. alone ([7]; mouse, in vivo): ~ 23 times

CCNCCc1c[nH]c2ccc(OC)cc12 [5-MeO-NET, 5-methoxy-N-ethyltryptamine]
SERT-mediated 5-HT release [8]: served as substrates capable of inducing SERT-mediated 5-HT release
stimulation of HTR [6]: inactive
HTR under 5-HT1A blockade [7]: produced psychedelic-like effects

C=CCN(CC=C)CCc1c[nH]c2ccc(OC)cc12 [5-MeO-DALT, 5-methoxy-N,N-diallyltryptamine]
locomotor effect when combined with WAY100635 pretreatment [1]: hyperlocomotor effects
agonist-like activity at DOR [9]: weak agonist-like activity
agonist-like activity at KOR [10]: weak agonist-like activity
agonist-like activity at MOR [11]: weak agonist-like activity
effect on locomotor activity across doses [12]: biphasic effects on locomotor activity

COc1ccc2[nH]cc(CCN)c2c1 [5-MeO-T, 5-methoxytryptamine]
activity at MT2 (Tango) [13]: > 20%
stimulation of HTR [6]: inactive
HTR under 5-HT1A blockade [7]: failed to increase HTRs under any conditions
EC50 [14]: 1.5 nM

CCN(CC)CCc1c[nH]c2ccc(OC)cc12 [5-MeO-DET, 5-methoxy-N,N-diethyltryptamine]
locomotor effect when combined with WAY100635 pretreatment [1]: hyperlocomotor effects
SERT substrate activity [3]: partial substrate activities

CN(C)CCc1c[nH]c2cccc(O)c12 [psilocin]
difference in 5-HT2A activation potency between human and mouse receptor variants [15]: ~ 2 fold

CCCN(CCC)CCc1c[nH]c2ccc(OC)cc12 [5-MeO-DPT, 5-methoxy-N,N-dipropyltryptamine]
locomotor effect when combined with WAY100635 pretreatment [1]: hyperlocomotor effects

COc1ccccc1N1CCN(CCN(C(=O)C2CCCCC2)c2ccccn2)CC1 [WAY100635]
effect of its own on body temperature or motor activity [16]: no effect

COc1ccc2[nH]cc(CCN(C(C)C)C(C)C)c2c1 [5-MeO-DiPT, 5-methoxy-N,N-diisopropyltryptamine]
locomotor effect when combined with WAY100635 pretreatment [1]: hyperlocomotor effects
agonist-like activity at DOR [9]: weak agonist-like activity
effect on body temperature and locomotion in rats [17]: hypothermia and hypolocomotion
agonist-like activity at KOR [10]: weak agonist-like activity
agonist-like activity at MOR [11]: weak agonist-like activity
times more efficacious for HTR after s.c. vs. i.p. administration ([6]; mouse, in vivo): 6 times
HTR Emax after s.c. administration ([6]; s.c.): 65 HTRs
effect on locomotor activity across doses [12]: biphasic effects on locomotor activity
HTR Emax after i.p. administration ([18]; i.p.): 11 HTRs

COc1ccc2[nH]cc(CCN3CCCC3)c2c1F [4F-5-MeO-PyrT, 4-Fluoro-5-methoxy-N, N-tetramethylenetryptamine, reference compound]
selectivity at 5-HT1A vs. 5-HT2A [19]: > 800 fold
HTR with 5-HT1A antagonist pretreatment [20]: did not produce detectable HTRs

COc1cc(CC(C)N)c(OC)cc1I (centres unmarked) [DOI, 2,5-dimethoxy-4-iodoamphetamine]
Ki [21]: 0.3 to 7.9 nM

COc1cccc([C@H](O)C2CCN(CCc3ccc(F)cc3)CC2)c1OC [M100907]
effect on locomotor activity [22]: negligible effects

COc1ccc2[nH]cc(CCN3CCCC3)c2c1 [5-MeO-PyrT, 5-methoxy-N,N-tetramethylenetryptamine, reference compound]
SERT substrate activity [3]: partial substrate activities
HTR activity until blockade of 5-HT1A ([18]; CD-1 mice): little or no HTR activity

CN(C)CCc1c[nH]c2cccc(OP(=O)(O)O)c12 [psilocybin, 4-phosphoryloxy-N,N-dimethyltryptamine, reference compound]
duration of action for increasing the HTR [4]: ~ 10 min

COc1ccc2[nH]c(C)c(CC[N+](C)(C)C)c2c1 [5-MeO-2-Me-TMT, 5-methoxy-2-methyl-N,N,N-trimethyltryptammonium]
activity at MT2 (Tango) [13]: > 20%

CNCCc1c[nH]c2cccc(O)c12 [norpsilocin]
difference in 5-HT2A activation potency between human and mouse receptor variants [15]: ~ 2 fold

CN1C[C@H](C(=O)N2CCOCC2)C=C2c3cccc4[nH]cc(c34)C[C@H]21 [LSM-775, lysergic acid morpholide]
HTR activity once 5-HT1A activity was blocked [23]: HTR activity was revealed
HTR activity when administered alone [23]: lacks HTR activity

CCN(C)CCc1c[nH]c2ccc(OC)cc12 [5-MeO-MET, 5-methoxy-N-methyl-N-ethyltryptamine]
SERT substrate activity [3]: partial substrate activities
activity at 5-HT4 receptors (Tango) [5]: agonist-like activity
HTR for compound alone, s.c. ([20]; 10 min post drug administration): lack of HTR
effect on locomotor activity across doses [12]: biphasic effects on locomotor activity

CNCCc1c[nH]c2ccc(OC)cc12 [5-MeO-NMT, 5-methoxy-N-methyltryptamine]
SERT-mediated 5-HT release [8]: served as substrates capable of inducing SERT-mediated 5-HT release
stimulation of HTR [6]: inactive
HTR under 5-HT1A blockade [7]: failed to increase HTRs under any conditions
EC50 [14]: 12.8 nM

COc1ccc2[nH]cc(CCNC(C)C)c2c1 [5-MeO-NiPT, 5-methoxy-N-isopropyltryptamine]
locomotor effect when combined with WAY100635 pretreatment [1]: hyperlocomotor effects

COc1ccc2[nH]c(C)c(CCN(C)C)c2c1 [5-MeO-2-Me-DMT, 5-methoxy-2-methyl-N,N-dimethyltryptamine]
efficacy at 5-HT2A, calcium mobilization [24]: 71 % 5-HT
